From PubChem BioAssay (NCI)
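Tested at 5 concentrations; 48 h exposure; 96-well plates; endpoints linearly interpolated, else capped at highest concentration. Definition used: TGI = concentration required for complete inhibition of growth.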

Legend:
Assay in all cases: growth of human tumour cells (NCI), 48 h
[1] = tested on: 786-0 renal
[2] = tested on: SF-539 CNS
[3] = tested on: K-562 leukemia
[4] = tested on: SK-OV-3 ovarian
[5] = tested on: MOLT-4 leukemia
[6] = tested on: SK-MEL-2 melanoma
[7] = tested on: NCI-H226 lung
[8] = tested on: U251 CNS
[9] = tested on: SF-268 CNS
[10] = tested on: SN12C renal
[11] = tested on: SF-295 CNS
[12] = tested on: SK-MEL-5 melanoma
[13] = tested on: ACHN renal
[14] = tested on: UACC-257 melanoma
[15] = tested on: A549 NSCLC
[16] = tested on: SNB-75 CNS
[17] = tested on: HOP-92 NSCLC
[18] = tested on: HL-60(TB) leukemia
[19] = tested on: HT29 colon
[20] = tested on: NCI-H23 lung
[21] = tested on: NCI-H460 lung
[22] = tested on: IGROV1 ovarian
[23] = tested on: DMS 273 small cell lung
[24] = tested on: OVCAR-3 ovarian
[25] = tested on: HCT-15 colon
[26] = tested on: OVCAR-8 ovarian
[27] = tested on: LXFL 529 NSCLC
[28] = tested on: M14 melanoma
[29] = tested on: OVCAR-4 ovarian
[30] = tested on: RPMI-8226 leukemia
[31] = tested on: TK-10 renal
[32] = tested on: XF 498 CNS
[33] = tested on: OVCAR-5 ovarian
[34] = tested on: SK-MEL-28 melanoma
[35] = tested on: CCRF-CEM leukemia
[36] = tested on: SNB-78 CNS
[37] = tested on: COLO 205 colon
[38] = tested on: UO-31 renal
[39] = tested on: DMS 114 small cell lung
[40] = tested on: DLD-1 colon
[41] = tested on: HCC-2998 colon
[42] = tested on: M19-MEL melanoma
[43] = tested on: MALME-3M melanoma
[44] = tested on: HOP-18 NSCLC
[45] = tested on: HCT-116 colon
[46] = tested on: KM12 colon
[47] = tested on: DU-145 prostate
[48] = tested on: NCI/ADR-RES ovarian
[49] = tested on: HS 578T breast
[50] = tested on: A498 renal
[51] = tested on: SNB-19 CNS
[52] = tested on: MDA-MB-231 breast
[53] = tested on: NCI-H522 lung
[54] = tested on: UACC-62 melanoma
[55] = tested on: MDA-N
[56] = tested on: KM20L2 colon
[57] = tested on: HOP-62 NSCLC
[58] = tested on: SW-620 colon
[59] = tested on: RXF 393 renal
[60] = tested on: LOX IMVI melanoma
[61] = tested on: SR leukemia
[62] = tested on: T-47D breast
[63] = tested on: PC-3 prostate
[64] = tested on: CAKI-1 renal
[65] = tested on: BT-549 breast
[66] = tested on: EKVX NSCLC
[67] = tested on: MDA-MB-435

Molecule `CSC1(C)CC2C(CC1N1CCOCC1)C2(C)C` (configuration not stated) has a TGI [1] greater than 100 µM, a TGI [2] greater than 100 µM and a TGI [3] greater than 100 µM. It also gave a TGI [4] greater than 100 µM, a TGI [5] greater than 100 µM and a TGI [6] greater than 100 µM. It also gave a TGI [7] greater than 100 µM, a TGI [8] greater than 100 µM and a TGI [9] greater than 100 µM. The TGI [10] was greater than 100 µM, the TGI [11] was greater than 100 µM and the TGI [12] was greater than 100 µM. It also gave a TGI [13] greater than 100 µM, a TGI [14] greater than 100 µM and a TGI [15] greater than 100 µM. For the same molecule, the TGI [16] was greater than 100 µM, the TGI [17] was greater than 100 µM and the TGI [18] was greater than 100 µM. It also gave a TGI [19] greater than 100 µM, a TGI [20] greater than 100 µM and a TGI [21] greater than 100 µM. The TGI [22] was greater than 100 µM, the TGI [23] was greater than 100 µM and the TGI [24] was greater than 100 µM. For the same molecule, the TGI [25] was greater than 100 µM, the TGI [26] was greater than 100 µM and the TGI [27] was greater than 100 µM. For the same molecule, the TGI [28] was greater than 100 µM, the TGI [29] was greater than 100 µM and the TGI [30] was greater than 100 µM. For the same molecule, the TGI [31] was greater than 100 µM, the TGI [32] was greater than 100 µM and the TGI [33] was greater than 100 µM. It also gave a TGI [34] greater than 100 µM, a TGI [35] greater than 100 µM and a TGI [36] greater than 100 µM. The TGI [37] was greater than 100 µM, the TGI [38] was greater than 100 µM and the TGI [39] was greater than 100 µM. It also gave a TGI [40] greater than 100 µM, a TGI [41] greater than 100 µM and a TGI [42] greater than 100 µM. For the same molecule, the TGI [43] was greater than 100 µM, the TGI [44] was greater than 100 µM and the TGI [45] was greater than 100 µM. It also gave a TGI [46] greater than 100 µM.

Work on `O=c1[nH]c2ccccc2nc1CBr` yielded a TGI [1] of 9.11 µM, a TGI [2] of 21.4 µM and a TGI [3] of 9.5 µM. It also gave a TGI [4] of 53.3 µM, a TGI [47] of 37.1 µM and a TGI [48] of 51.1 µM. For the same molecule, the TGI [49] was 42 µM, the TGI [50] was greater than 53.1 µM and the TGI [5] was 4.35 µM. It also gave a TGI [6] of 22.6 µM, a TGI [7] of 37.3 µM and a TGI [8] of 23.8 µM. The TGI [51] was 52 µM, the TGI [9] was 31.1 µM and the TGI [52] was 23.3 µM. For the same molecule, the TGI [10] was 24.5 µM, the TGI [11] was 43.2 µM and the TGI [12] was 23.2 µM. The TGI [13] was 27 µM, the TGI [14] was 27.3 µM and the TGI [15] was 39.2 µM. The TGI [53] was 1.49 µM, the TGI [16] was 34.2 µM and the TGI [54] was 21.3 µM. For the same molecule, the TGI [17] was 11.8 µM, the TGI [18] was 0.721 µM and the TGI [55] was 24.6 µM. It also gave a TGI [56] of 32.9 µM, a TGI [57] of 45 µM and a TGI [19] of 22.8 µM. For the same molecule, the TGI [20] was 29.1 µM, the TGI [21] was 29 µM and the TGI [58] was 17.5 µM. It also gave a TGI [59] of 7.72 µM, a TGI [22] of 11.3 µM and a TGI [23] of 10.4 µM. The TGI [60] was 3.24 µM, the TGI [24] was 4.22 µM and the TGI [61] was 2.44 µM. For the same molecule, the TGI [25] was 26.2 µM, the TGI [26] was 34.7 µM and the TGI [62] was 31.1 µM. It also gave a TGI [27] of 3.21 µM, a TGI [28] of 22.8 µM and a TGI [29] of 13.4 µM. For the same molecule, the TGI [30] was 9.97 µM, the TGI [63] was 25.1 µM and the TGI [64] was 19.6 µM. For the same molecule, the TGI [31] was 20.7 µM, the TGI [32] was 3.51 µM and the TGI [33] was 33.7 µM. The TGI [34] was 25.6 µM, the TGI [35] was 1.45 µM and the TGI [65] was 21.4 µM. It also gave a TGI [66] of 9.87 µM, a TGI [36] of 65.6 µM and a TGI [67] of 25.5 µM. The TGI [37] was 17.6 µM, the TGI [38] was 11.2 µM and the TGI [40] was 22.8 µM. It also gave a TGI [41] of 56.2 µM, a TGI [42] of 22.8 µM and a TGI [43] of 8.66 µM. It also gave a TGI [44] of 19 µM, a TGI [45] of 21.3 µM and a TGI [46] of 10.1 µM.
